pEC50: −log10 of the molar value. Some results are limits rather than exact numbers.

For data set [1], the system named is Respiratory Syncytial Virus (RSV) long strain (ATCC#VR-26). The data set can be described thus: RSV Antiviral Assay (CPE reduction assay). Conditions: human respiratory syncytial virus, 120 h; HEp-2 cells infected with RSV long strain, 5 days, CCK-8 readout; bins (Table 2: less than 1 μM; Table 3: equal to or higher than 1 μM and less than 50 μM); read-out: 50% effective concentration (EC50). The class given is cell-based. Put shortly: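 HEp-2 cells infected with 100 TCID50 RSV long strain per well, compounds from 100 μM or 1 μM in 9-point ⅓ dilutions, duplicates, 1% DMSO. After 5 days at 37 °C, viable cells measured by CCK-8 (A450, 630 nm background); EC50 by regression on mean O.D.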

Data set [2] can be described thus: Cytotoxicity Determination. It is filed as cell-based. The note with it: human, HEp-2 cells, without addition of virus, CCK-8 readout, bins (Table 4: greater than 100 μM; Table 5: equal to or less than 100 μM and greater than 10 μM), read-out: 50% cytotoxicity concentration (CC50). Summed up: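 Uninfected cells were exposed to compounds in duplicate over a 7-point ½ dilution series starting at 100 μM final, for 5 days at 37 °C, 5% CO2. CCK-8 was then added for 3-4 h, and CC50 was calculated from optical density.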

For `COc1cc(C(=O)NCC(=O)c2cc(N(C)C)cc(-c3csc4c(F)cccc34)n2)ccc1OCCO` [Compound 1245], the pEC50 in data set [1] was over 6.00. The CC50 at 5 days in data set [2] is over 100 µM.
As for `COc1cc(OCCC(=O)N(C)/N=C/c2csc3c(F)cccc23)ccc1OCCO` [Compound 2306], in data set [1], the pEC50 was 4.30 to 6.00. Also, the CC50 at 5 days in data set [2] is over 100 µM.
For the molecule `COc1cc(C(=O)NCC(=O)c2cccc(-c3csc4c(F)cccc34)n2)ccc1OC1CC(O)C1` (stereo not drawn) [Compound 1256], the pEC50 in data set [1] was over 6.00. The CC50 at 5 days in data set [2] fell in the range of 10 to 100 µM.
On the same counts, the results for `COc1ccc(C(=O)NCC(=O)c2ccc(OC)c(-c3ccc(C(F)(F)F)cc3)n2)cc1OC` [Compound 1531] are over 6.00 and over 100 µM.
In the same order, the values of `COCc1ccc(C(=O)NCC(=O)c2ccc(OC)c(-c3ccc(F)c(Cl)c3)n2)cc1OC` [Compound 1323] are over 6.00 and 10 to 100 µM.
In the same order, the values of `CCOc1ccc(C(=O)NCC(=O)N/N=C(\CCc2ccccc2)c2csc3ccccc23)cc1OC` [Compound 459] are over 6.00 and over 100 µM.
Consider `COc1ccc(C(=O)NC(C)(C)C(=O)c2cccc(-c3csc4c(F)cccc34)n2)cc1OC` [Compound 1340], for which the pEC50 in data set [1] was 4.30 to 6.00. Besides, the CC50 at 5 days in data set [2] is over 100 µM.
In the same order, the values of `CCc1ccc(C(=O)CNC(=O)c2ccc(OCCO)c(OC)c2)nc1-c1csc2c(F)cccc12` [Compound 2106] are over 6.00 and 10 to 100 µM.
In the same order, the values of `CCOC(=O)c1c[nH]c2c(/C=N/NC(=O)CNC(=O)c3ccc(OC)c(OC)c3)csc2c1=O` [Compound 498] are 4.30 to 6.00 and over 100 µM.
In the same order, the values of `COc1ccc(C(=O)NCC(=O)c2cc(N(C)C)cc(-c3csc4c(F)cccc34)n2)cc1OC` [Compound 1221] are over 6.00 and over 100 µM.
For the molecule `COc1cc(C(=O)NCC(=O)c2cccc(-c3csc4c(F)cccc34)n2)ccc1O[C@H]1CC[C@@H](O)CC1` [Compound 1225], the pEC50 in data set [1] was 4.30 to 6.00. Moreover, in data set [2], the CC50 at 5 days is over 100 µM.
In the same order, the values of `COc1ccc(C(=O)NCC(=O)N/N=C/c2csc3c(F)cccc23)cc1OC` [Compound 490] are over 6.00 and over 100 µM.
Turning to `COc1cc(C(=O)NCC(=O)c2cccc(-c3csc4c(F)cccc34)n2)ccc1OC1CCOCC1` [Compound 1224], the pEC50 in data set [1] is 4.30 to 6.00. Moreover, the CC50 at 5 days in data set [2] was over 100 µM.
For `COc1cc(Br)c(C(=O)NCC(=O)N/N=C(\C)c2csc3ccccc23)cc1OC` [Compound 479], the pEC50 in data set [1] is 4.30 to 6.00. The CC50 at 5 days in data set [2] fell in the range of 10 to 100 µM.
In the same order, the values of `COc1ccc(C(=O)NCC(=O)N/N=C(\CCO)c2csc3ccccc23)cc1OC` [Compound 492] are over 6.00 and over 100 µM.
In the same order, the values of `COc1ccc(C(=O)NCC(=O)N/N=C2\CCSc3ccccc32)cc1OC` [Compound 451] are 4.30 to 6.00 and over 100 µM.
In the same order, the values of `COc1cc(-c2csc3c(F)cccc23)nc(C(=O)CNC(=O)c2ccc(OC)c(OC)c2)n1` [Compound 3401] are 4.30 to 6.00 and over 100 µM.
With `COc1ccc(C(=O)NC(CO)C(=O)c2ccc(OC)c(-c3csc4c(F)cccc34)n2)cc1OC` (stereo not drawn) [Compound 1816], the pEC50 in data set [1] is over 6.00. The CC50 at 5 days in data set [2] was over 100 µM.
On to `COc1cc(C(=O)N[C@@H](CO)C(=O)c2ccc(OC)c(-c3csc4c(F)cccc34)n2)ccc1OCCO` [Compound 1830], for which the pEC50 in data set [1] was over 6.00. In data set [2], the CC50 at 5 days is over 100 µM.
On the same counts, the results for `COc1ccc(C(=O)NCC(=O)c2nc(-c3csc4c(F)cccc34)cn2CC(C)C)cc1OC` [Compound 1356] are 4.30 to 6.00 and over 100 µM.
In the same order, the values of `COc1ccc(C(=O)NCC(=O)N2CCC(c3csc4c(F)cccc34)=N2)cc1OC` [Compound 1100] are 4.30 to 6.00 and 10 to 100 µM.
On the same counts, the results for `CCSc1ccc(C(=O)NCC(=O)N/N=C/c2csc3ccccc23)cc1` [Compound 238] are over 6.00 and 10 to 100 µM.
For the molecule `COc1ccc(C(=O)NCC(=O)c2ccc(OC)c(-c3cccc4ncccc34)n2)cc1OC` [Compound 1519], the pEC50 in data set [1] was 4.30 to 6.00. Further, the CC50 at 5 days in data set [2] is 10 to 100 µM.
On to `CCCC/C(=N\NC(=O)CNC(=O)c1ccc(OCC)c(OC)c1)c1csc2ccccc12` [Compound 488], for which the pEC50 in data set [1] is over 6.00. For the same molecule, the CC50 at 5 days in data set [2] is over 100 µM.
In the same order, the values of `COc1ccc(C(=O)NC(C)CC(=O)c2ccc(OC)c(-c3csc4c(F)cccc34)n2)cc1OC` (stereo not drawn) [Compound 1801] are 4.30 to 6.00 and over 100 µM.
As for `COc1ccc(C(=O)NCC(=O)N/N=C(\C)c2cc3c(F)cccc3s2)cc1OC` [Compound 400-3], the pEC50 in data set [1] was 4.30 to 6.00. For the same molecule, the CC50 at 5 days in data set [2] was over 100 µM.
On to `COc1ccc(C(=O)NCC(=O)c2ccnc(-c3csc4c(F)cccc34)n2)cc1OC` [Compound 840], for which the pEC50 in data set [1] was 4.30 to 6.00. Further, the CC50 at 5 days in data set [2] is over 100 µM.
In the same order, the values of `COc1ccc(C(=O)NCC(=O)c2csc(-c3csc4c(F)cccc34)n2)cc1OC` [Compound 1210] are 4.30 to 6.00 and over 100 µM.
In the same order, the values of `COc1ccc(C(=O)NCC(=O)N/N=C2\CCc3sc4ccccc4c32)cc1OC` [Compound 418] are 4.30 to 6.00 and 10 to 100 µM.
On the same counts, the results for `COc1cc(C(=O)NCC(=O)c2cccc(-c3csc4c(F)cccc34)n2)ccc1OCc1nc[nH]n1` [Compound 1242] are 4.30 to 6.00 and 10 to 100 µM.
As for `COCC/C(=N/NC(=O)CNC(=O)c1ccc(OC2COC2)c(OC)c1)c1csc2c(F)cccc12` [Compound 514B], the pEC50 in data set [1] is over 6.00. The CC50 at 5 days in data set [2] is over 100 µM.
In the case of `COc1ccc(C(=O)NCC(=O)N/N=C/c2cc3ccccc3o2)cc1OC` [Compound 409], in data set [1], the pEC50 was 4.30 to 6.00. Also, the CC50 at 5 days in data set [2] lay in the range of 10 to 100 µM.
In the same order, the values of `COc1ccc(C(=O)NCC(=O)N/N=C(/c2csc3ccccc23)C(F)F)cc1OC` [Compound 445] are 4.30 to 6.00 and over 100 µM.
On the same counts, the results for `COc1ccc(C(=O)NCC(=O)c2cccc(-c3csc4c(F)cccc34)n2)cc1OC` [Compound 1202] are 4.30 to 6.00 and over 100 µM.
On the same counts, the results for `CCCC/C(=N\NC(=O)CNC(=O)c1ccc(OC)c(OC)c1)c1csc2c(F)cccc12` [Compound 400-7] are over 6.00 and 10 to 100 µM.
`COc1ccc(C(=O)NCC(=O)c2ccc(OC)c(-c3csc4c(F)cccc34)n2)cc1OC` [Compound 1336]: the pEC50 in data set [1] was over 6.00. Further, in data set [2], the CC50 at 5 days was over 100 µM.
On the same counts, the results for `COc1cc(C(=O)NCC(=O)c2ccc(OC)c(C3=CS(=O)(=O)c4c(F)cccc43)n2)ccc1OCCO` [Compound 1344] are 4.30 to 6.00 and 10 to 100 µM.
As for `COc1cc(C(=O)NCC(=O)c2ccc(OC)c(-c3ccc(F)c(Cl)c3)n2)ccc1OCC1CC1` [Compound 2638], the pEC50 in data set [1] is over 6.00. Also, the CC50 at 5 days in data set [2] was in the range of 10 to 100 µM.
`COc1ccc(C(=O)NCC(=O)c2ncc(-c3csc4c(F)cccc34)[nH]2)cc1OC` [Compound 1352]: in data set [1], the pEC50 was 4.30 to 6.00. Moreover, the CC50 at 5 days in data set [2] lay in the range of 10 to 100 µM.

The record behind these values is patent US9724351B2, “Compounds for the treatment of paramoxyvirus viral infections” (priority 2012, dated 2017).
